Source: EP0260057A2, “2-Oxo-4-carboxy-pyrimidines” (THE UNIVERSITY OF MELBOURNE, priority 1986, dated 1988)
Blank lines part the entries; values can stand above or below the molecule they belong to.

Target: T1, dihydroorotase (Mesocricetus auratus, UniProt P08955)
T1 construct: purified by an established procedure from a mutant hamster cell line which overproduces the target enzyme; endogenous in cells; host or cells: mutant hamster cell line overproducing the enzyme more than 100-fold; enzyme purified from these cells
Assay: Dihydroorotase inhibition assay (conversion of L-[14C]dihydroorotate to N-[14C]carbamyl-L-aspartate)
Format: biochemical, hamster
Protocol: Dihydroorotase has been purified by an established procedure from a mutant hamster cell line which overproduces the target enzyme by more than 100-fold (P.F. Coleman, D.P. Suttle and G.R. Stark (1978) in "Methods in Enzymology" (P.A. Hoffee and M.E. Jones eds.) Vol. 51, pp 121-134, Academic Press, New York; P.F. Coleman D.P. Suttle and G.R. Stark (1977) J. Biol. Chem. 252, 6379-6385). Purified dihydroorotase was stored at -70°C in a solution containing 30% (v/v) dimethyl sulphoxide, 5% (v/v) glycerol, 50 mM KCl, 4 mM L-glutamine, 4 mM L-aspartate, 0.1 mM EDTA and 1 mM dithiothreitol.
Dihydroorotase catalyses the conversion of N-carbamyl-L-aspartate to L-dihydroorotate. To assess the effects of a potential inhibitor of this target enzyme, the rate of conversion of L-dihydroorotate to N-carbamyl-L-aspartate catalysed by dihydroorotase was measured in the presence of a range of concentrations of the inhibitor. For a tight-binding inhibitor like TDHO, extremely low concentrations are sufficient to abolish all dihydroorotase activity. To illustrate the inhibitory potency of TDHO, results of the following experiment are presented. Assay mixtures for dihydroorotase activity contained in a total volume of 25 ul, 50 mM K.Hepes buffer pH 7.4, 5% (v/v) glycerol 12.5 µM L-[¹⁴C]dihydroorotate (specific radioactivity 47.1 Ci/mol), and TDHO concentrations ranging from 0 - 1.50 µM containing a 30-fold molar excess of ZnCl₂. Catalysis was initiated by addition of 39 ng of dihydroorotase. The rate of conversion of L-[¹⁴C]dihydroorotate to N-[¹⁴C]carbamyl-L-aspartate was measured in the presence of different concentrations of TDHO, using established procedures (R.I. Christopherson, T. Matsuura and M.E. Jones (1978) Analytical Biochemistry 100, 184-187). The assay mixture lacking TDHO had the fastest reaction velocity while the lowest velocity measured was in the presence of the highest concentration of TDHO. The results data are plotted as the reciprocal of reaction velocity (l/v) versus the concentration of TDHO from which a value for the dissociation constant (Ki value) for TDHO from the enzyme-TDHO complex can be obtained.
Assay mixtures for dihydroorotase activity contained in a total volume of 25 µl:50 mM K.Hepes buffer pH 7.4, 5% (v/v) glycerol, 12.5 µM L-[¹⁴C]dihydroorotate (specific radioactivity 47.1 Ci/mol), and HDDP concentrations ranging from 0 - 5 µM. Catalysis was initiated by addition of 39 ng of dihydroorotase. The rate of conversion of L-[¹⁴C]dihydroorotate to N-[¹⁴C]carbamyl-L-aspartate was measured in the presence of different concentrations of HDDP, in a similar manner to Test 3.

T1 sequence (P08955 whole entry): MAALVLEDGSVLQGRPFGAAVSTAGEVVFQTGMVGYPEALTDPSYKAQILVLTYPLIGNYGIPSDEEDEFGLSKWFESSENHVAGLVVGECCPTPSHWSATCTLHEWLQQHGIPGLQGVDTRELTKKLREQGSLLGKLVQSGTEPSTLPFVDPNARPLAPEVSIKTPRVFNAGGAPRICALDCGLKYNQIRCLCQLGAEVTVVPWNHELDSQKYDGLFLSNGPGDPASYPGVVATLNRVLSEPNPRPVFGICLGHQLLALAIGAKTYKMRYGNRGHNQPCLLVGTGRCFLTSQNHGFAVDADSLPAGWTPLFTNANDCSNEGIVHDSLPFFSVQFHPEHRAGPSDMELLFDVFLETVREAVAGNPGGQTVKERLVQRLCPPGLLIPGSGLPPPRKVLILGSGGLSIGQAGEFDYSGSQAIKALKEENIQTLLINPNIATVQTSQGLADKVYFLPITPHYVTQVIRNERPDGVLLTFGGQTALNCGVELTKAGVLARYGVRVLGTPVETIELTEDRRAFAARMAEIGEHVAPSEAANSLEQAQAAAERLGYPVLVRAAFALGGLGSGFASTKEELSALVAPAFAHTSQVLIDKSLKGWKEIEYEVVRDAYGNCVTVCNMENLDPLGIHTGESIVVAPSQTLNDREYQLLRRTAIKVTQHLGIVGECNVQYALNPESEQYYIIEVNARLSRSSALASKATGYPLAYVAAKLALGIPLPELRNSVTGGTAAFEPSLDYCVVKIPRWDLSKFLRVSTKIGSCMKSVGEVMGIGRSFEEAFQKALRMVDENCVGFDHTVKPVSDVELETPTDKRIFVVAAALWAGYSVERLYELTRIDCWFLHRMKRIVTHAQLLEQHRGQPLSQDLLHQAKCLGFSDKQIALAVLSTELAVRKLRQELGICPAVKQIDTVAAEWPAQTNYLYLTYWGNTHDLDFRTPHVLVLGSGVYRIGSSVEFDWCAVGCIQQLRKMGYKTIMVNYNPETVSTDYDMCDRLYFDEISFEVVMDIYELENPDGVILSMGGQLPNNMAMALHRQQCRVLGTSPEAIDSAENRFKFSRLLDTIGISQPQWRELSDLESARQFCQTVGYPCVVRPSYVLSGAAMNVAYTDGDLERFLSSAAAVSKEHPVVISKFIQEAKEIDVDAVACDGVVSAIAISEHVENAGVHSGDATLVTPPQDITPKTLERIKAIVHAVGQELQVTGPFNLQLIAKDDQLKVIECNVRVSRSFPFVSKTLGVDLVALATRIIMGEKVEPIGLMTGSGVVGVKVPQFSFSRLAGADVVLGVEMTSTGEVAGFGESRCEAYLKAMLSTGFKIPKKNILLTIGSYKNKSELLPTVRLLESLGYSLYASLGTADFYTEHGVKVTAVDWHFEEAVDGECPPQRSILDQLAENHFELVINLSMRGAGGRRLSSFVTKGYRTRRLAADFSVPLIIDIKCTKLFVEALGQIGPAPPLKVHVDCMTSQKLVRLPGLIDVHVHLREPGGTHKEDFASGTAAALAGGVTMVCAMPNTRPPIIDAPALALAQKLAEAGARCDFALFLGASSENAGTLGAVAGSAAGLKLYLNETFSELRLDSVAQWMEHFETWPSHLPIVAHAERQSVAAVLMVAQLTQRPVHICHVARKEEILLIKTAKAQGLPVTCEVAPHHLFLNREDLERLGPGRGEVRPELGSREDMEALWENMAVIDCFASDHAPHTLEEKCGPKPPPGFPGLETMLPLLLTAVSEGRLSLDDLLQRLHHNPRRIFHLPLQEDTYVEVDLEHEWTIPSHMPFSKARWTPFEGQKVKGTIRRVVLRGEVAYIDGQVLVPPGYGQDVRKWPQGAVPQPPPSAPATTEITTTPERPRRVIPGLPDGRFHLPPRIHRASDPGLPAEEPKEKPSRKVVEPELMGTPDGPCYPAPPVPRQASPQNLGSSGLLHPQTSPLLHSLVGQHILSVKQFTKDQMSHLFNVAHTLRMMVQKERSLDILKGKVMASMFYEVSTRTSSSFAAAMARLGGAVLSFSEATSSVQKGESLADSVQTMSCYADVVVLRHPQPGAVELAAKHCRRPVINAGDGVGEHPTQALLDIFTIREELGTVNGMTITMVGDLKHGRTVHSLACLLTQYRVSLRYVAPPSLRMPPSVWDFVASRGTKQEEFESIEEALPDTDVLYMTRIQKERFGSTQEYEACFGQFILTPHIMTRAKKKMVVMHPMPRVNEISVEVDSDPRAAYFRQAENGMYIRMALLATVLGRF

Ki (HDDP 0 - 5 µM, pH 7.4, 12.5 µM L-[¹⁴C]dihydroorotate, no ZnCl₂ mentioned): 480 nM
Molecule: O=C1NC(C(=O)O)=CC(C(=O)O)N1 (stereo not shown) [HDDP, 2-oxo-1,2,3,6-tetrahydropyrimidine-4,6-dicarboxylic acid]

Ki (TDHO containing a 30-fold molar excess of ZnCl₂, pH 7.4, 12.5 µM L-[¹⁴C]dihydroorotate): 53 nM
Ki (free acid of TDHO, in the absence of Zn²⁺): 4500 nM
Molecule: O=C1NC(=S)CC(C(=O)O)N1 (stereo not shown) [TDHO, Hexahydro-2-oxo-6-thioxo-4-pyrimidinecarboxylic acid]

inhibitory effect (ZnCl₂ alone, at the same concentrations as in the TDHO experiment): moderate inhibitory effect
Molecule: ZnCl₂ [reference compound]
